Some test systems named below: OVCAR-8; SK-MEL-2; UO-31; SNB-75; SR; HT-29; OVCAR-3; 786-0; OVCAR-4; PC-3; LOX IMVI; SK-MEL-28; IGROV-1; HCC 2998; HCT-15; M14; SF-539; HOP-62; T47D.
Holding throughout (assay): NCI tumour cell line growth inhibition, 48 h

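Grown in 96-well plates, cells were treated for 48 hours with each compound at five concentrations. Insufficient inhibition: endpoint recorded as highest concentration tested. Here, GI50 denotes the concentration required for 50% inhibition of growth.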 Calls of active or inactive are those of the source. Rule as the data show it: active = GI50 up to about 1.1 µM and inactive = higher. Bounds are passed on as bounds.

Turning to `CC1=C2CC3=C(C)C(=O)O[C@H]3C[C@@H](C)[C@@H]2CC1` [AMERICANOLIDE D], the GI50 is > 100 µM (inactive) with OVCAR-8; > 100 µM (inactive) in the assay on SK-MEL-2; > 100 µM (inactive) in the assay on UO-31; 97.5 µM (inactive) with SNB-75; 62.1 µM (inactive) with SR; 85.9 µM (inactive) in the assay on HT-29. The GI50 in the assay on OVCAR-3, in the assay on 786-0, in the assay with OVCAR-4, in the assay with PC-3, in the assay on LOX IMVI and with SK-MEL-28 was > 100 µM (inactive) in each case. In addition, the GI50 was > 100 µM (inactive) in the assay on IGROV-1, > 100 µM (inactive) with HCC 2998, > 100 µM in the assay on HCT-15 and > 100 µM (inactive) with M14.

As to `COc1ccc2c(c1)c(=O)c1c(NCCN(C)C)ccc3nnn2c31`, the GI50 in the assay on OVCAR-8 was 1.04 µM (active); in the assay on SK-MEL-2, 6.31 µM (inactive); in the assay with UO-31, 2.17 µM (inactive); with SF-539, 4.04 µM (inactive); in the assay with HOP-62, 2.82 µM (inactive); in the assay on SNB-75, 7.1 µM (inactive). Also, the GI50 with SR is 0.493 µM (active); in the assay with HT-29, 1.57 µM (inactive); in the assay with OVCAR-3, 4.24 µM (inactive); in the assay on 786-0, 1.71 µM (inactive); in the assay on OVCAR-4 it was 1.97 µM (inactive); in the assay on LOX IMVI it was 1.33 µM (inactive). Also, the GI50 with SK-MEL-28 is 5.78 µM (inactive); in the assay with IGROV-1, 3.33 µM (inactive); in the assay with HCC 2998 it was 2.76 µM (inactive); with HCT-15, 3.82 µM; in the assay on M14, 3.99 µM (inactive).

As for `COC(=O)CCSC(=O)Nc1ccccc1Cl`, the GI50 in the assay with OVCAR-8, in the assay on SK-MEL-2, in the assay with UO-31, with SF-539, with HOP-62 and in the assay with SNB-75 was > 100 µM (inactive) throughout. Besides, the GI50 in the assay on SR, in the assay with HT-29, in the assay on OVCAR-3, in the assay with 786-0, in the assay on OVCAR-4 and with LOX IMVI was > 100 µM (inactive) throughout. Moreover, the GI50 in the assay with SK-MEL-28 is > 100 µM (inactive); with HCC 2998 it was > 100 µM (inactive); with HCT-15, > 100 µM; with M14 it was > 100 µM (inactive).

For `COc1cc(/C=N/c2ccccn2)cc(OC)c1OC`, the GI50 with OVCAR-8, in the assay on SK-MEL-2, in the assay on UO-31, in the assay on SF-539, in the assay on HOP-62 and with SNB-75 was > 100 µM (inactive) each time. The GI50 in the assay with SR was > 63.2 µM (inactive); in the assay on HT-29, > 100 µM (inactive); in the assay with OVCAR-3, > 100 µM (inactive); with 786-0, > 100 µM (inactive); in the assay with OVCAR-4 it was > 100 µM (inactive); with LOX IMVI, > 100 µM (inactive). Besides, the GI50 in the assay on SK-MEL-28 is > 86.9 µM (inactive); with IGROV-1 it was > 100 µM (inactive); in the assay on HCC 2998 it was > 100 µM (inactive); in the assay with T47D, > 100 µM (inactive); in the assay on HCT-15, > 82.6 µM; in the assay with M14, > 100 µM (inactive).

Regarding `CC(=O)OC[C@@H]1[C@H]2CC(=O)O[C@H]2C[C@H]1OC(C)=O`, the GI50 in the assay on OVCAR-8, with UO-31, with SF-539, in the assay with HOP-62, with SNB-75 and in the assay with SR was > 100 µM (inactive) throughout. The GI50 in the assay with HT-29, in the assay with OVCAR-3, in the assay on 786-0, in the assay on OVCAR-4, in the assay on LOX IMVI and with SK-MEL-28 was > 100 µM (inactive) in each case. In addition, the GI50 is > 100 µM (inactive) in the assay with IGROV-1, > 100 µM (inactive) in the assay on HCC 2998, > 100 µM with HCT-15 and > 100 µM (inactive) with M14.

In the case of `O=S(=O)(c1ccccc1)C(c1ccc2ccccc2n1)S(=O)(=O)c1ccccc1`, the GI50 in the assay with OVCAR-8 is > 100 µM (inactive); in the assay on UO-31 it was > 100 µM (inactive); in the assay on SF-539 it was > 100 µM (inactive); in the assay with HOP-62, 78 µM (inactive); in the assay on SNB-75, > 100 µM (inactive); with SR, > 100 µM (inactive). The GI50 in the assay with HT-29 was > 100 µM (inactive); in the assay with OVCAR-3, > 100 µM (inactive); with 786-0, > 100 µM (inactive); with OVCAR-4, 55.6 µM (inactive); in the assay on PC-3 it was > 100 µM (inactive); in the assay with LOX IMVI it was > 100 µM (inactive). For the same compound, the GI50 with SK-MEL-28 was > 100 µM (inactive); in the assay on IGROV-1, > 100 µM (inactive); with HCC 2998, 48.5 µM (inactive); in the assay on HCT-15 it was > 100 µM.

On to `CNC(=S)N/N=C(\C(=N/NC(=S)NC)c1ccccn1)c1ccccn1`, for which the GI50 with OVCAR-8 is 0.687 µM (active); in the assay with SK-MEL-2, 14.3 µM (inactive); in the assay with UO-31, 2.48 µM (inactive); in the assay with SF-539, 45.8 µM (inactive); in the assay with HOP-62, 7.78 µM (inactive); with SNB-75 it was 20.8 µM (inactive). For the same compound, the GI50 was < 0.01 µM (active) in the assay with HT-29; 0.31 µM (active) in the assay with OVCAR-3; 5.71 µM (inactive) in the assay on 786-0; 10.9 µM (inactive) with OVCAR-4; 1.03 µM (active) in the assay on PC-3; 4.82 µM (inactive) in the assay with LOX IMVI. The GI50 in the assay with SK-MEL-28 was 29 µM (inactive); in the assay on IGROV-1, 0.759 µM (active); with HCC 2998, > 23 µM (inactive); in the assay on HCT-15, 0.232 µM; in the assay on M14, 2.14 µM (inactive).

With `O=C1/C(=C/c2ccc(Cl)cc2)CCCc2ccccc21`, the GI50 in the assay with OVCAR-8 is 17.2 µM (inactive); with SK-MEL-2 it was 14.7 µM (inactive); in the assay with UO-31, 18.3 µM (inactive); in the assay with SF-539, 17.9 µM (inactive); in the assay on HOP-62, 24.5 µM (inactive); in the assay on SNB-75, 30.3 µM (inactive). In addition, the GI50 in the assay on SR was 13.6 µM (inactive); in the assay on HT-29, 4.67 µM (inactive); with OVCAR-3, 18.9 µM (inactive); with 786-0, 17.3 µM (inactive); in the assay with OVCAR-4, 14.9 µM (inactive); in the assay with PC-3, 19.6 µM (inactive). Besides, the GI50 with LOX IMVI was 17.3 µM (inactive); with SK-MEL-28, 16.6 µM (inactive); with IGROV-1, 18.2 µM (inactive); in the assay on HCC 2998, 22.2 µM (inactive); with HCT-15, 14 µM; in the assay on M14, 15.6 µM (inactive).

With `CCOC(=O)C(C(=O)OCC)C(=O)c1ccccc1C(=O)c1ccccc1`, the GI50 was > 100 µM (inactive) in the assay with SK-MEL-2; > 100 µM (inactive) with UO-31; > 100 µM (inactive) in the assay with SF-539; > 100 µM (inactive) with HOP-62; > 100 µM (inactive) in the assay with SNB-75; 18.1 µM (inactive) in the assay with SR. Also, the GI50 with HT-29 was 28.4 µM (inactive); in the assay on OVCAR-3, 74 µM (inactive); in the assay with 786-0, > 100 µM (inactive); in the assay with OVCAR-4, > 100 µM (inactive); in the assay on LOX IMVI, > 100 µM (inactive); in the assay on IGROV-1, > 100 µM (inactive). Moreover, the GI50 in the assay on HCC 2998 is > 100 µM (inactive); in the assay with T47D, > 100 µM (inactive); in the assay on HCT-15, > 100 µM; in the assay with M14 it was > 100 µM (inactive).

For `COCCOCC(=O)N(CCn1ccc(NC(c2ccccc2)(c2ccccc2)c2ccccc2)nc1=O)CCn1cnc2nc(N)[nH]c(=O)c21`, the GI50 with OVCAR-8, in the assay on SK-MEL-2, with UO-31, in the assay with SF-539, in the assay with HOP-62 and with SNB-75 was > 100 µM (inactive) in each case. In addition, the GI50 in the assay with SR, with HT-29, with OVCAR-3, in the assay on 786-0, in the assay on OVCAR-4 and in the assay with LOX IMVI was > 100 µM (inactive) in each case. The GI50 in the assay on SK-MEL-28 is > 100 µM (inactive); in the assay on IGROV-1, > 100 µM (inactive); in the assay on HCC 2998, > 100 µM (inactive); in the assay with HCT-15 it was > 100 µM; in the assay on M14, > 100 µM (inactive).

For the compound `COc1cccc(N2C(=O)CSC2c2cc(OC)c(OC)c(OC)c2)c1` (centres undefined), the GI50 is 36 µM (inactive) in the assay with OVCAR-8; > 100 µM (inactive) in the assay on SK-MEL-2; 36.8 µM (inactive) with UO-31; 24.5 µM (inactive) in the assay on SF-539; 5.75 µM (inactive) in the assay on SR; 33.1 µM (inactive) in the assay with HT-29. Besides, the GI50 in the assay on OVCAR-3 was 20.7 µM (inactive); in the assay on 786-0 it was 28.9 µM (inactive); in the assay with OVCAR-4, 47.3 µM (inactive); with PC-3 it was 55.1 µM (inactive); in the assay with LOX IMVI, 32.8 µM (inactive); in the assay on SK-MEL-28, 62.2 µM (inactive). The GI50 with IGROV-1 is 44.6 µM (inactive); in the assay with HCC 2998 it was 22.7 µM (inactive); in the assay with HCT-15 it was 20 µM; in the assay with M14, 27.7 µM (inactive).

On to `COc1ccc(-c2csc(-n3c(-c4ccccc4)nc4c(Br)cc(Br)cc4c3=O)n2)cc1`, for which the GI50 was 26.7 µM (inactive) with OVCAR-8; 47.2 µM (inactive) in the assay with SK-MEL-2; 23.4 µM (inactive) in the assay with UO-31; 40.1 µM (inactive) in the assay on HOP-62; 31.3 µM (inactive) in the assay with SNB-75; 26.7 µM (inactive) in the assay on HT-29. Further, the GI50 in the assay with OVCAR-3 is 25.2 µM (inactive); in the assay with 786-0, 22.9 µM (inactive); in the assay on OVCAR-4 it was 63.2 µM (inactive); with PC-3 it was 25.8 µM (inactive); with LOX IMVI, 29.9 µM (inactive); in the assay with SK-MEL-28, 23.2 µM (inactive). The GI50 was 2.92 µM (inactive) in the assay with IGROV-1, 28.1 µM (inactive) in the assay with HCC 2998, 19.3 µM in the assay with HCT-15 and 29.4 µM (inactive) in the assay with M14.

For the origin of these results see ChEMBL document CHEMBL1201862, “PubChem BioAssay data set” (2004).
